# Assay results: patent US5440041A, “Acetal or ketal substituted xanthine compounds” (Cell Therapeutics, Inc., priority 1994, dated 1995)
# Assays:
# PAPH = test: Inhibition of PAPH; assay type: biochemical; settings: specific activation pathway not involving PI; substrates with 1,2-diunsaturated and 1-alkyl,2-unsaturated subspecies
# Experimental: One in vitro assay measures inhibition of the relevant enzymes lysophosphatidic acid acyltransferase (LPAAT) and phosphatidic acid phosphoryl hydrolase (PAPH). The assay involves incubating of target cells with a primary stimulus (e.g., a variety of cytokines, growth factors, oncogene products, putative therapeutic agents, irradiation, viral infection, toxins, bacterial infection and the products thereof, and any stimulus which, if not counteracted, has a deleterious effect on the target cell) in the presence or absence of an inventive compound at varying dosage levels. […] It is important to note that the assay method permits discrimination between various forms of PA and DAG so that those relevant to the pathway affected by the (R) or (S) compounds of the invention can be measured directly. […] Thus, the relevant unsaturated (non-arachidonic) PA and DAG subspecies may be detected. […]
# certain cytokines = settings: U.S. Pat. No. 4,965,271 and U.S. Pat. No. 5,096,906; cited from earlier work
# [1] = tested on: polymorphonuclear leukocytes; settings: in response to a stimulator of chemotaxis; U.S. Pat. No. 4,636,507; cited from earlier work
# [2] = tested on: tumor necrosis factor (TNF); settings: PTX recipients; cited from earlier work
smiles,measurement,setting,value
"CC(=O)CCCCn1c(=O)c2c(ncn2C)n(C)c1=O [PTX, 1-(5-oxohexyl)-3,7-dimethylxanthine]",effect on PAPH,PAPH,blocks PAPH in a specific activation pathway
same,effect on activity of certain cytokines to affect chemotaxis,certain cytokines,inhibit activity of certain cytokines to affect chemotaxis
same,effect on chemotaxis in polymorphonuclear leukocytes,[1],stimulate chemotaxis
same,TNF levels in normal volunteers,[2],higher among PTX recipients
